Drawing on US12264173B2 (GILEAD SCIENCES, INC., priority 2020, dated 2025), this text covers EC50 for 15 compounds.

Read-outs that look alike come from different tables or passages of the source.

What all share (format): cell-based
Assay [1] deals with RSV strain A2. The assay can be described thus: microbe, parasite or virus in culture. The note with it: read-out: RSV HEp-2 EC50. The essentials: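 Cytopathic-effect protection assay: HEp-2 cells (50,000/mL) infected with pre-titered RSV A2 onto 3-fold serial compound dilutions, incubated 4 days at 37° C. Cell viability read by CellTiter-Glo luminescence; percent inhibition derived against 0% and 100% virus-inhibition controls.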

Assay [2] deals with RSV A2. The assay can be described thus: RSV NHBE EC50 (RSV A2 antiviral assay in NHBE cells). The note with it: read-out: RSV NHBE EC50. The essentials:
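Read-out: CellTiter-Glo luminescence of cell viability after 4 days at 37° C. Primary NHBE cells, 7,500/well, 3-fold compound dilutions, 0.05% DMSO, infected with RSV A2 (1×10^4.5 TCID/mL).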

For assay [3], the system named is HRV16. The assay can be described thus: HRV16 HeLa EC50 (cytopathic effect in H1-HeLa cells). Put shortly: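 Read-out is luminescent cell viability (CellTiter-Glo) after 96 h of infection at 33 °C, scaled between uninfected and infected-untreated wells. Before infection with titrated virus, compounds went onto H1-HeLa cells as triplicate 3-fold dilution series.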
(In general: Cytopathic effects are the visible damage that an infection or toxin causes in cultured cells.)

The test system of assay [4] is DENV2 replicon. The assay can be described thus: DENV-2 Huh-7 Rep EC50 (replicon luminescence). As for the experimental part: In 384 well plates (Greiner, Cat #781091), compounds were acoustically transferred at 200 nl per well in a 8 compound (4 replicates) or 40 compound dose response format (3 replicates). For all plates tested, Balapiravir, GS-5734 and NITD008 were included as positive inhibition controls alongside 0% inhibition, DMSO-only negative control wells. Following compound addition, Huh-7 cells containing the DENV2 replicon construct were harvested following standard cell culture procedures and were adjusted to a concentration of 1.25E5 cells/mL in cell culture media composed of cDMEM without genticin. 40 μL of the cell stock was then added to each well for a final cell density of 5,000 cells/well. Cell and compound mixtures were incubated at 37° C./5% CO2 for 48 hours. Prior to harvesting cells, EnduRen Live Cell Substrate (Promega, Cat #E6481) was prepared by suspending 3.4 mg into 100 uL of DMSO to generate a 60 mM stock solution. The stock solution was then diluted 1:200 in pre-warmed cDMEM and 10 uL of this diluted solution was added to each well of the 384 well plates. Plates were then centrifuged at 500 rpm briefly and were placed on a plate shaker for 2 min. Following mixing, plates were incubated at […] for 1.5 hours prior to measuring luminescence on an Envision luminometer.
For orientation: In antiviral work, replicon cells carry a viral genome segment that copies itself.

Setting [5] is: human respiratory syncytial virus, HEp-2, 96 h, Table 3, HEp-2 cells, RSV A2, 4 days.
Setting [6] is: human respiratory syncytial virus, NHBE, 96 h, Table 3, NHBE cells, RSV A2, 4 days.
The mark [7] stands for this setting: Dengue virus, DENV2, Huh-7, 48 h, read-out: DENV-2 REP Huh7 EC50.
[8] abbreviates: Table 3, HEp-2 cells, RSV A2, 4 days.
Where [9] appears, read: Table 3, NHBE cells, RSV A2, 4 days.
The mark [10] stands for this setting: Table 3, Huh-7 DENV2 replicon cells, 48 hours, read-out: DENV-2 REP Huh7 EC50.

On to `CCC(=O)O[C@H]1[C@H](c2ccc3c(N)ncnn23)O[C@](C#N)(COP(=O)(N[C@@H](C)C(=O)OC2CCN(CC)CC2(F)F)Oc2ccccc2)[C@H]1OC(=O)CC` (stereo partly drawn) [Example 135, (2R,3S,4S,5S)-5-(4-Aminopyrrolo[2,1-f][1,2,4]triazin-7-yl)-2-cyano-2-((((((2S)-1-((1-ethyl-3,3-difluoropiperidin-4-yl)oxy)-1-oxopropan-2-yl)amino)(phenoxy)phosphoryl)oxy)methyl)tetrahydrofuran-3,4-diyl dipropionate], for which the EC50 in assay [1] (setting [5]) stood at 738 nM; in assay [2] (setting [6]), 33 nM; in assay [3] (96 h, Table 3; H1-HeLa cells, 96 h; read-out: HRV16 HeLa EC50), 1080 nM; in assay [4] (setting [7]), 30600 nM.
Turning to `CCC(CC)COC(=O)[C@H](C)NP(=O)(N[C@@H](C)C(=O)OC1CCCCC1)OC[C@@]1(C#N)O[C@@H](c2ccc3c(N)ncnn23)[C@H](OC(C)=O)[C@@H]1OC(C)=O` (stereo partly drawn) [Example 113, (2R,3S,4S,5S)-5-(4-Aminopyrrolo[2,1-f][1,2,4]triazin-7-yl)-2-cyano-2-((((((S)-1-(cyclohexyloxy)-1-oxopropan-2-yl)amino)(((S)-1-(2-ethylbutoxy)-1-oxopropan-2-yl)amino)phosphoryl)oxy)methyl)tetrahydrofuran-3,4-diyl diacetate], the half-maximal effective concentration (EC50) in assay [1] (setting [5]) was 1940 nM; in assay [3] (96 h, read-out: HRV16 HeLa EC50, Table 3; H1-HeLa cells, 96 h), 4680 nM; in assay [4] (Dengue virus, DENV2, Huh-7, 48 h, read-out: DENV-2 REP Huh7 EC50, Table 3, Huh-7 DENV2 replicon cells, 48 hours), 31900 nM.
For the compound `CC(C)C(=O)O[C@H]1[C@H](c2ccc3c(N)ncnn23)O[C@](C#N)(COP(=O)(N[C@@H](C)C(=O)OCC(C)(C)O)Oc2ccccc2)[C@H]1OC(=O)C(C)C` (single isomer, unassigned) [Example 257], the EC50 in assay [1] (setting [8]) came to 72 nM; in assay [2] (setting [9]) it was 24 nM; in assay [4] (setting [10]), 7470 nM.
The corresponding values for `CC(=O)O[C@H]1[C@H](c2ccc3c(N)ncnn23)O[C@](C#N)(CO[P@@](=O)(N[C@@H](C)C(=O)OCC2CCOCC2)Oc2ccccc2)[C@H]1OC(C)=O` [Example 111] are 873 nM, 44 nM and over 100000 nM.
As for `C[C@H](NP(=O)(OC[C@@]1(C#N)O[C@@H](c2ccc3c(N)ncnn23)[C@H](O)[C@@H]1O)Oc1ccccc1)C(=O)OCC1CCOCC1` (stereo partly drawn) [Example 20, (tetrahydro-2H-pyran-4-yl)methyl ((((2R,3S,4R,5S)-5-(4-aminopyrrolo[2,1-f][1,2,4]triazin-7-yl)-2-cyano-3,4-dihydroxytetrahydrofuran-2-yl)methoxy)(phenoxy)phosphoryl)-L-alaninate], the EC50 in assay [1] (human respiratory syncytial virus, HEp-2, Table 5 comparative activity, 2',3'-OH vs -OC(O)iPr) is 877 nM; in assay [2] (human respiratory syncytial virus, NHBE, Table 5 comparative activity, 2',3'-OH vs -OC(O)iPr) it was 2230 nM; in assay [4] (Dengue virus, DENV2, Huh-7, read-out: DENV Rep EC50), over 50000 nM.
Take `CC(=O)O[C@H]1[C@H](c2ccc3c(N)ncnn23)O[C@](C#N)(COP(=O)(N[C@@H](C)C(=O)OC2CCOCC2)Oc2ccccc2)[C@H]1OC(C)=O` (single isomer, unassigned) [Example 164]: the concentration giving a half-maximal response (EC50) was 1690 nM in assay [1] (setting [8]), 148 nM in assay [2] (setting [9]) and over 100000 nM in assay [4] (setting [10]).
For `COC(=O)[C@H](C)N[P@](=O)(OC[C@@]1(C#N)O[C@@H](c2ccc3c(/N=C/N(C)C)ncnn23)[C@H](OC(=O)C(C)C)[C@@H]1OC(=O)C(C)C)Oc1ccccc1` [Example 260, (2R,3S,4S,5S)-2-Cyano-5-(4-(((E)-(dimethylamino)methylene)amino)pyrrolo[2,1-f][1,2,4]triazin-7-yl)-2-((((S)-(((S)-1-methoxy-1-oxopropan-2-yl)amino)(phenoxy)phosphoryl)oxy)methyl) tetrahydrofuran-3,4-diyl bis(2-methylpropanoate)], the concentration for a half-maximal effect (EC50) in assay [1] (setting [5]) was 41 nM; in assay [2] (setting [6]) it was 12 nM; in assay [4] (setting [7]), 2800 nM.
In the case of `CCC(CC)COC(=O)[C@H](C)N[P@](=O)(OC[C@@]1(C#N)O[C@@H](c2ccc3c(N)ncnn23)[C@H](OC(C)=O)[C@@H]1OC(C)=O)Oc1ccccc1` [Example 88, (2R,3S,4S,5S)-5-(4-aminopyrrolo[2,1-f][1,2,4]triazin-7-yl)-2-cyano-2-((((S)-(((S)-1-(2-ethylbutoxy)-1-oxopropan-2-yl)amino)(phenoxy)phosphoryl)oxy)methyl) tetrahydrofuran-3,4-diyl diacetate], the 50% effective concentration (EC50) in assay [1] (setting [5]) amounted to 108 nM; in assay [2] (setting [6]), 42 nM; in assay [4] (setting [7]), 8820 nM.
The matching figures for `CC(C)OC(=O)[C@H](C)N[P@](=O)(OC[C@@]1(C#N)O[C@@H](c2ccc3c(N)ncnn23)[C@H](OC(=O)C2COC2)[C@@H]1OC(=O)C1COC1)Oc1ccccc1` [Example 160, (2R,3S,4S,5S)-5-(4-aminopyrrolo[2,1-f][1,2,4]triazin-7-yl)-2-cyano-2-((((S)-(((S)-1-isopropoxy-1-oxopropan-2-yl)amino)(phenoxy)phosphoryl)oxy)methyl) tetrahydrofuran-3,4-diyl bis(oxetane-3-carboxylate)]: 204 nM, 860 nM and 37400 nM.
`CC(C)C(=O)O[C@H]1[C@H](c2ccc3c(N)ncnn23)O[C@](C#N)(COP(=O)(N[C@@H](C)C(=O)OCC(C)(C)O)Oc2ccccc2)[C@H]1OC(=O)C(C)C` (single isomer, unassigned) [Example 258]: the values for the concentration for a half-maximal effect (EC50) in assay [1] (setting [8]), in assay [2] (setting [9]) and in assay [4] (setting [10]) were 91 nM, 34 nM and 18300 nM, respectively.
The corresponding values for `C[C@H](NP(=O)(OC[C@@]1(C#N)O[C@@H](c2ccc3c(N)ncnn23)[C@H](OC(=O)C(C)(C)C)[C@@H]1OC(=O)C(C)(C)C)Oc1ccccc1)C(=O)OC1CCOCC1` (single isomer, unassigned) [Example 172] are 1100 nM, 145 nM and 16800 nM.
Take `CC(=O)O[C@H]1[C@H](c2ccc3c(N)ncnn23)O[C@](C#N)(CO[P@](=O)(N[C@@H](C)C(=O)OCC2CCN(CC(F)(F)F)CC2)Oc2ccccc2)[C@H]1OC(C)=O` [Example 120]: the EC50 in assay [1] (setting [8]) was found to be 163 nM; in assay [3] (Table 3; H1-HeLa cells, 96 h; read-out: HRV16 HeLa EC50), 1140 nM; in assay [4] (setting [10]), 35200 nM.
In the case of `CCC(=O)OC1[C@H](c2ccc3c(N)ncnn23)O[C@](C#N)(COP(=O)(N[C@@H](C)C(=O)OCC2CCC2)Oc2ccccc2)[C@H]1OC(=O)CC` (stereo in doubt) [Example 91, (2R,3S,4R,5S)-5-(4-aminopyrrolo[2,1-f][1,2,4]triazin-7-yl)-2-cyano-2-((((((S)-1-(cyclobutylmethoxy)-1-oxopropan-2-yl)amino)(phenoxy)phosphoryl)oxy)methyl) tetrahydrofuran-3,4-diyl dipropionate], the EC50 amounted to 67 nM in assay [1] (setting [5]), 23 nM in assay [2] (setting [6]) and 10200 nM in assay [4] (setting [7]).
For `CC(=O)OC1[C@H](c2ccc3c(N)ncnn23)O[C@](C#N)(COP(=O)(N[C@@H](C)C(=O)OCC2CC2)Oc2ccccc2)[C@H]1OC(C)=O` (stereo in doubt) [Example 101, (2R,3S,4R,5S)-5-(4-aminopyrrolo[2,1-f][1,2,4]triazin-7-yl)-2-cyano-2-((((((S)-1-(cyclopropylmethoxy)-1-oxopropan-2-yl)amino)(phenoxy)phosphoryl)oxy)methyl) tetrahydrofuran-3,4-diyl diacetate], the values for the EC50 in assay [1] (setting [5]), in assay [2] (setting [6]) and in assay [4] (setting [7]) were 94 nM, 19 nM and 25800 nM, respectively.
The corresponding values for `CCC(=O)OC1[C@H](c2ccc3c(N)ncnn23)O[C@](C#N)(COP(=O)(N[C@@H](C)C(=O)OCC2CCN(CC(F)(F)F)CC2)Oc2ccccc2)[C@H]1OC(=O)CC` (stereo in doubt) [Example 115, (2R,3S,4R,5S)-5-(4-aminopyrrolo[2,1-f][1,2,4]triazin-7-yl)-2-cyano-2-((((((S)-1-oxo-1-((1-(2,2,2-trifluoroethyl)piperidin-4-yl)methoxy)propan-2-yl)amino)(phenoxy)phosphoryl)oxy)methyl)tetrahydrofuran-3,4-diyl dipropionate] are 112 nM, 22 nM and 20400 nM.

A word on the EC50: it is the concentration at which the effect is half-maximal.
